Measured values taken from PubChem BioAssay (NCI).
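Cultured in 96-well plates, cells were exposed to test compound for 48 hours across five concentrations. The concentration for full growth arrest is given as TGI.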

Experiments:
Assay in all cases: NCI anticancer screen, dose series, 48 h
[1] = system: SK-MEL-5 melanoma
[2] = system: LOX IMVI melanoma
[3] = system: XF 498 CNS
[4] = system: SK-MEL-28 melanoma
[5] = system: NCI-H23 lung
[6] = system: CCRF-CEM leukemia
[7] = system: U251 CNS
[8] = system: DMS 114 small cell lung
[9] = system: CAKI-1 renal
[10] = system: DLD-1 colon
[11] = system: SK-OV-3 ovarian
[12] = system: SF-539 CNS
[13] = system: HL-60(TB) leukemia
[14] = system: RXF 393 renal
[15] = system: HOP-92 NSCLC
[16] = system: SN12C renal
[17] = system: IGROV1 ovarian
[18] = system: A498 renal
[19] = system: SW-620 colon
[20] = system: TK-10 renal
[21] = system: M19-MEL melanoma
[22] = system: SNB-75 CNS
[23] = system: MOLT-4 leukemia
[24] = system: UACC-257 melanoma
[25] = system: ACHN renal
[26] = system: HCT-15 colon
[27] = system: OVCAR-8 ovarian
[28] = system: HCT-116 colon
[29] = system: HT29 colon
[30] = system: 786-0 renal
[31] = system: HOP-62 NSCLC
[32] = system: NCI-H460 lung
[33] = system: COLO 205 colon
[34] = system: SNB-19 CNS
[35] = system: A549 NSCLC
[36] = system: OVCAR-3 ovarian
[37] = system: HCC-2998 colon
[38] = system: UACC-62 melanoma
[39] = system: SF-295 CNS
[40] = system: EKVX NSCLC
[41] = system: HOP-18 NSCLC
[42] = system: LXFL 529 NSCLC
[43] = system: K-562 leukemia
[44] = system: RPMI-8226 leukemia
[45] = system: SNB-78 CNS
[46] = system: OVCAR-4 ovarian
[47] = system: M14 melanoma
[48] = system: DMS 273 small cell lung
[49] = system: KM20L2 colon
[50] = system: OVCAR-5 ovarian
[51] = system: SR leukemia
[52] = system: KM12 colon
[53] = system: SF-268 CNS
[54] = system: SK-MEL-2 melanoma
[55] = system: UO-31 renal
[56] = system: NCI-H522 lung
[57] = system: NCI-H226 lung
[58] = system: MALME-3M melanoma
[59] = system: NCI/ADR-RES ovarian
[60] = system: MDA-MB-435
[61] = system: MDA-N
[62] = system: BT-549 breast
[63] = system: HS 578T breast
[64] = system: DU-145 prostate
[65] = system: PC-3 prostate
[66] = system: T-47D breast
[67] = system: MCF7 breast
[68] = system: MDA-MB-231 breast

Measured: TGI

Cc1c(C#N)c(=O)[nH]c(=O)n1CCN1CCN(C(=O)NCCCCCCNC(=O)N2CCN(CCn3c(C)c(C#N)c(=O)[nH]c3=O)CC2)CC1
not listed: [50] | [51] | [52] | [53] | [54] | [55] | [56] | [57] | [58] | [59] | [60] | [61] | [62] | [63] | [64] | [65] | [66] | [67] | [68]
> 100 µM: all other assays above

O=S(=O)(Sc1ccc(Cl)cc1)c1ccc(Cl)cc1
31.6 µM: [10]
48.9 µM: [58]
35 µM: [29]
25.4 µM: [16]
45 µM: [51]
42.1 µM: [15]
29.6 µM: [48]
31.2 µM: [25]
32.5 µM: [52] | [47]
34.5 µM: [18]
21.3 µM: [53]
44.5 µM: [23]
34.1 µM: [49]
31.1 µM: [4] | [17] | [56]
22.3 µM: [7]
23.9 µM: [55]
40.7 µM: [37]
85.2 µM: [11]
30.1 µM: [14]
29.5 µM: [30]
93.7 µM: [43]
53.4 µM: [3]
24.8 µM: [2]
31.4 µM: [38]
37.4 µM: [32]
27.7 µM: [12]
14.5 µM: [54]
18.5 µM: [6]
40.5 µM: [9] | [22]
37.9 µM: [50]
31.8 µM: [33]
36.3 µM: [24]
32.7 µM: [35] | [42]
30.5 µM: [5]
61.4 µM: [20]
60.5 µM: [44]
32.6 µM: [19]
57.5 µM: [40]
33 µM: [13]
40.2 µM: [26]
35.6 µM: [21]
30.2 µM: [27] | [36]
41.7 µM: [46]
27.2 µM: [39]
28.6 µM: [1] | [8] | [28]
45.9 µM: [45]
30.9 µM: [31] | [57]
65 µM: [34]

CCCCCCCSc1nc2c(C(=O)OCC)ncn2c2ccccc12
not listed: [1] | [9] | [10] | [12] | [18] | [22] | [30] | [34] | [35] | [41] | [45] | [46] | [56] | [59] | [60] | [61] | [62] | [63] | [64] | [65] | [66] | [67] | [68]
> 100 µM: all other assays above

CCOC(=O)c1oc2ccc(OC)c3c2c1CCC3
40 µM: [24]
not listed: [9] | [28] | [29] | [41] | [49] | [59] | [60] | [61] | [62] | [63] | [64] | [65] | [66] | [67] | [68]
> 100 µM: all other assays above

CC(=O)OC1CCn2nnc(CO[Si](C)(C)C(C)(C)C)c21 (stereo unspecified)
not listed: [2] | [6] | [13] | [15] | [18] | [21] | [31] | [38] | [45] | [53] | [59] | [60] | [61] | [62] | [63] | [64] | [65] | [66] | [67] | [68]
> 100 µM: all other assays above

Cn1cnc2nc(Cl)nc(NC(C)(C)C(C)(C)O)c21
not listed: [2] | [4] | [21] | [42] | [59] | [60] | [61] | [62] | [63] | [64] | [65] | [66] | [67] | [68]
> 100 µM: all other assays above

Cc1cc(=O)[nH]c(NN2C(Cl)C(=O)C2c2ccc(Cl)cc2)n1 (stereo unspecified)
27.7 µM: [15]
48.6 µM: [20] | [31]
33 µM: [30]
39.1 µM: [5]
39 µM: [45]
86.9 µM: [62]
42.5 µM: [22] | [67]
45.1 µM: [14]
60 µM: [60]
30 µM: [8]
39.9 µM: [38]
35.7 µM: [16] | [21]
15.1 µM: [2] | [17]
> 64.8 µM: [35]
12.7 µM: [13]
72 µM: [68]
66.6 µM: [64]
> 64.7 µM: [46]
46.4 µM: [54]
25.7 µM: [1]
> 100 µM: [11] | [65] | [39]
> 55.1 µM: [24]
32.1 µM: [37]
32.3 µM: [58]
25.9 µM: [48]
> 60.9 µM: [55]
52.4 µM: [7]
33.1 µM: [44]
16.1 µM: [52]
54.9 µM: [59] | [29]
> 60.4 µM: [50]
72.6 µM: [61]
31.1 µM: [28] | [32]
35 µM: [40]
42 µM: [57]
23.2 µM: [41]
28.9 µM: [47]
22.7 µM: [23]
> 71.7 µM: [19]
93.5 µM: [63]
49.6 µM: [4]
53.6 µM: [18]
30.3 µM: [36]
43.4 µM: [66]
45.2 µM: [34]
16.2 µM: [43]
33.3 µM: [12]
5.67 µM: [6]
56.5 µM: [27]
30.7 µM: [9]
> 53.8 µM: [26]
19.2 µM: [42]
36.2 µM: [33]
> 56.4 µM: [25]
> 66.2 µM: [53]
44.5 µM: [49]
6.22 µM: [51]
